The record followed here is patent US7723417B2, “Fluorochemical composition and method for treating a substrate therewith” (3M Innovative Properties Company, priority 2004, dated 2010).

Where a name gives a salt, the structure may show the parent alone. Some results are limits rather than exact numbers.

The data set is described as follows: Water solubility of an additive. Type of data set: physicochemical. The conditions noted are these: 25° C., demineralized water. As to the method: The water solubility of an additive was determined at ambient conditions (25° C.) in demineralized water. Measured quantities of additive and demineralized water were combined and shaken for up to two hours. The additive was deemed soluble if a clear solution resulted; the additive was otherwise deemed insoluble. The water solubility of an additive is the maximum concentration of additive producing a clear solution in water.
In the case of `CCCCOC(=O)CC(CC(=O)OCCCC)(OC(C)=O)C(=O)OCCCC` [ATBC, Acetyl tributyl citrate], the “Solubility H2O” value was less than 0.1 w %.
As to `COC(=O)CC(O)(CC(=O)OC)C(=O)OC` [TMC, Trimethyl citrate], the “Solubility H2O” value came to 6 w %.
Under `CCOC(=O)CC(O)C(=O)OCC` (stereo not drawn) [DEM, Diethyl malate] stands more than 10 w %.
The value for C4H9(OC3H6)3—OH [DTPnB] was 3 w %; that for `CC(C)OC(=O)C(O)C(O)C(=O)OC(C)C` (stereo not drawn) [DIPT, Diisopropyl tartarate] was more than 10 w %.
`CCCCOC(=O)CC(O)(CC(=O)OCCCC)C(=O)OCCCC` [TBC, Tributyl citrate]: the “Solubility H2O” value is less than 0.05 w %.
Under `C=C(C)C(=O)OCC(CO)OC(=O)C(=C)C` (stereo not drawn) [GDM, Glycerol dimethacrylate] stands 0.4 w %; under `CCCCOC(=O)CC(O)C(=O)OCCCC` (stereo not drawn) [DBM, Dibutyl malate], 0.2 w %; under `CCCCOC(=O)C(O)C(O)C(=O)OCCCC` (stereo not drawn) [DBT, Dibutyl tartarate], 0.8 w %.
